Data: patent US20240018125A1, “CYCLIC ISOTHIOUREA DERIVATIVES AS CXCR4 MODULATORS” (ERMIUM THERAPEUTICS, priority 2020, published 2024)
Counter-ions that a name gives are not always drawn.

Test system: peripheral blood mononuclear cells (PBMCs) from healthy donors
Assay: IFN production by R848-activated PBMCs, quantified with twINNE luciferase reporter cell line
Type: cell-based, human
Conditions: Homo sapiens, PBMC; read-out: IC50 of anti-inflammatory activity (IFN production by activated PBMCs)
Procedure, shortened: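 Healthy-donor PBMCs (4.10^6/mL, RPMI/10% FBS) were pre-treated with compound, then stimulated with R848 at 5 μg/mL for 24 h. Supernatants were put on twINNE cells, which carry luciferase under five ISREs, for 24 h, and Bright-Glo luminescence was read. IC50 values came from variable-slope dose-response fits.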

Row | Compound | IC50
1 | C1=C(CSC2=NCCc3ccccc3N2)N2CC(Cc3ccccc3)N=C2S1 (stereo not drawn) [Example 88, 6-benzyl-3-(((4,5-dihydro-1H-benzo[d][1,3]diazepin-2-yl)thio)methyl)-5,6-dihydroimidazo[2,1-b]thiazole dihydrochloride] | ≤ 10 µM
2 | CN1CCC(CCSC2=NCc3cc(Cl)ccc3N2)C1 (stereo not drawn) [Example 177, 6-chloro-2-((2-(1-methylpyrrolidin-3-yl)ethyl)thio)-1,4-dihydroquinazoline dihydrochloride] | ≤ 10 µM
3 | Clc1ccccc1CC1CN2C(CSC3=NCc4ccccc4N3)=CSC2=N1 (stereo not drawn) [Example 123, 6-(2-chlorobenzyl)-3-(((1,4-dihydroquinazolin-2-yl)thio)methyl)-5,6-dihydroimidazo[2,1-b]thiazole dihydrochloride] | ≤ 10 µM
4 | CN1CCCC1CSC1=NCc2ccccc2N1 (stereo not drawn) [Example 108, 2-(((1-methylpyrrolidin-2-yl)methyl)thio)-1,4-dihydroquinazoline dihydrochloride] | 10 to 32 µM
5 | Fc1ccc2c(c1)CN1C(CSC3=NCc4ccccc4N3)=CSC1=N2 [Example 84, 3-(((1,4-dihydroquinazolin-2-yl)thio)methyl)-7-fluoro-5H-thiazolo[2,3-b]quinazoline dihydrochloride] | ≤ 10 µM
6 | c1ccc(CC2CN=C(SCCN3CCCCCC3)N2)cc1 (stereo not drawn) [Example 58, 1-(2-((5-benzyl-4,5-dihydro-1H-imidazol-2-yl)thio)ethyl)azepane dihydrochloride] | 10 to 32 µM
7 | CC1(C)N=C(SCC2=CSC3=NCc4ccccc4CN23)Nc2ccccc21 [Example 21, 3-(((4,4-dimethyl-1,4-dihydroquinazolin-2-yl)thio)methyl)-5,10-dihydrobenzo[e]thiazolo[3,2-a][1,3]diazepine dihydrochloride] | ≤ 10 µM
8 | Ic1cc2c(c(I)c1I)NC(SCCN1CCCC1)=NC2 [Example 134, 6,7,8-triiodo-2-((2-(pyrrolidin-1-yl)ethyl)thio)-1,4-dihydroquinazoline dihydrochloride] | ≤ 10 µM
9 | CC1(c2ccccc2)CN=C(SCC2=CSC3=NCc4ccccc4CN23)N1 (stereo not drawn) [Example 30, 3-(((5-methyl-5-phenyl-4,5-dihydro-1H-imidazol-2-yl)thio)methyl)-5,10-dihydrobenzo[e]thiazolo[3,2-a][1,3]diazepine dihydrochloride] | ≤ 10 µM
10 | C[C@@H](CN1CCCC1)SC1=NCc2cc(Cl)ccc2N1 [Example 168, (S)-6-chloro-2-((1-(pyrrolidin-1-yl)propan-2-yl)thio)-1,4-dihydroquinazoline dihydrochloride] | 10 to 32 µM
11 | CC1(C)CN2C(CSC3=NCc4ccc(Cl)cc4N3)=CSC2=N1 [Example 6, 3-(((7-chloro-1,4-dihydroquinazolin-2-yl)thio)methyl)-6,6-dimethyl-5,6-dihydroimidazo[2,1-b]thiazole dihydrochloride] | ≤ 10 µM
12 | C1=C(CSC2=Nc3ccccc3C(c3ccccc3)N2)N2Cc3ccccc3CN=C2S1 (stereo not drawn) [Example 27, 3-(((4-phenyl-3,4-dihydroquinazolin-2-yl)thio)methyl)-5,10-dihydrobenzo[e]thiazolo[3,2-a][1,3]diazepine dihydrochloride] | ≤ 10 µM
13 | Clc1ccc2c(c1)CN=C(SCC1=CSC3=Nc4ccccc4CN13)N2 [Example 39, 3-(((6-chloro-1,4-dihydroquinazolin-2-yl)thio)methyl)-5H-thiazolo[2,3-b]quinazoline dihydrochloride] | ≤ 10 µM
14 | c1ccc2c(c1)CN=C(SCCCCN1CCCC1)NC2 [Example 171, 3-((4-(pyrrolidin-1-yl)butyl)thio)-2,5-dihydro-1H-benzo[e][1,3]diazepine dihydrochloride] | > 32 µM
15 | c1ccc2c(c1)NC(SCCCCN1CCCC1)=NC21CC1 [Example 180, 2′-((4-(pyrrolidin-1-yl)butyl)thio)-1′H-spiro[cyclopropane-1,4′-quinazoline] dihydrochloride] | 10 to 32 µM
16 | C[C@H](CSC1=NCc2cc(Cl)ccc2N1)N1CCCC1 [Example 167, (R)-6-chloro-2-((2-(pyrrolidin-1-yl)propyl)thio)-1,4-dihydroquinazoline dihydrochloride] | ≤ 10 µM
17 | Clc1ccc2c(c1)CN1C(CSC3=NCCN3)=CSC1=N2 [Example 4, 7-chloro-3-(((4,5-dihydro-1H-imidazol-2-yl)thio)methyl)-5H-thiazolo[2,3-b]quinazoline dihydrochloride] | ≤ 10 µM
18 | Clc1ccc2c(c1)CN1C(CSC3=NCC(Cc4ccccc4)N3)=CSC1=N2 (stereo not drawn) [Example 20, 3-(((5-benzyl-4,5-dihydro-1H-imidazol-2-yl)thio)methyl)-7-chloro-5H-thiazolo[2,3-b]quinazoline dihydrochloride] | ≤ 10 µM
19 | CC1(c2ccccc2)CN=C(SCCCCN2CCCC2)N1 (stereo not drawn) [Example 170, 5-methyl-5-phenyl-2-((4-(pyrrolidin-1-yl)butyl)thio)-4,5-dihydro-1H-imidazole dihydrochloride] | > 32 µM
20 | Fc1cccc2c1CN1C(CSC3=NCc4ccccc4N3)=CSC1=N2 [Example 18, 3-(((3,4-dihydroquinazolin-2-yl)thio)methyl)-6-fluoro-5H-thiazolo[2,3-b]quinazoline dihydrochloride] | ≤ 10 µM

Row | Compound | IC50
21 | Fc1ccc2c(c1)N=C1SC=C(CSC3=NCc4ccccc4N3)N1C2 [Example 82, 3-(((1,4-dihydroquinazolin-2-yl)thio)methyl)-8-fluoro-5H-thiazolo[2,3-b]quinazoline dihydrochloride] | ≤ 10 µM
22 | c1ccc(CC2CN=C(SCCCN3CCCC3)N2)cc1 (stereo not drawn) [Example 52, 5-benzyl-2-((3-(pyrrolidin-1-yl)propyl)thio)-4,5-dihydro-1H-imidazole dihydrochloride] | > 32 µM
23 | Brc1ccc2c(c1)CN=C(SCCCCN1CCCC1)N2 [Example 163, 6-bromo-2-((4-(pyrrolidin-1-yl)butyl)thio)-1,4-dihydroquinazoline dihydrochloride] | ≤ 10 µM
24 | CN1CCCC1CCSC1=NCc2cc(Cl)ccc2N1 (stereo not drawn) [Example 158, 6-chloro-2-((2-(1-methylpyrrolidin-2-yl)ethyl)thio)-1,4-dihydroquinazoline dihydrochloride] | ≤ 10 µM
25 | C[C@@H](CSC1=NCc2cc(Cl)ccc2N1)N1CCCC1 [Example 166, (S)-6-chloro-2-((2-(pyrrolidin-1-yl)propyl)thio)-1,4-dihydroquinazoline dihydrochloride] | ≤ 10 µM
26 | CC(CCCSC1=NCc2ccccc2N1)N1CCCC1 (stereo not drawn) [Example 165, 2-((4-(pyrrolidin-1-yl)pentyl)thio)-1,4-dihydroquinazoline dihydrochloride] | 10 to 32 µM
27 | Fc1cccc(CC2CN3C(CSC4=NCc5ccccc5N4)=CSC3=N2)c1 (stereo not drawn) [Example 121, 3-(((1,4-dihydroquinazolin-2-yl)thio)methyl)-6-(3-fluorobenzyl)-5,6-dihydroimidazo[2,1-b]thiazole dihydrochloride] | ≤ 10 µM
28 | Fc1cccc2c1CN=C(SCC1=CSC3=Nc4ccc(Cl)cc4CN13)N2 [Example 80, 7-chloro-3-(((5-fluoro-1,4-dihydroquinazolin-2-yl)thio)methyl)-5H-thiazolo[2,3-b]quinazoline dihydrochloride] | ≤ 10 µM
29 | CN1CCC(SC2=NCc3cc(Cl)ccc3N2)C1 (stereo not drawn) [Example 103, 6-chloro-2-((1-methylpyrrolidin-3-yl)thio)-1,4-dihydroquinazoline dihydrochloride] | ≤ 10 µM
30 | Clc1ccc2c(c1)CN=C(SCC1=CSC3=NCCN13)N2 [Example 10, 3-(((6-chloro-1,4-dihydroquinazolin-2-yl)thio)methyl)-5,6-dihydroimidazo[2,1-b]thiazole dihydrochloride] | ≤ 10 µM
31 | Fc1ccc2c(c1)CN=C(SCC1=CSC3=Nc4ccc(Cl)cc4CN13)N2 [Example 83, 7-chloro-3-(((6-fluoro-1,4-dihydroquinazolin-2-yl)thio)methyl)-5H-thiazolo[2,3-b]quinazoline dihydrochloride] | ≤ 10 µM
32 | Fc1cccc2c1CN=C(SCC1=CSC3=NCc4ccccc4CN13)N2 [Example 23, 3-(((5-fluoro-1,4-dihydroquinazolin-2-yl)thio)methyl)-5,10-dihydrobenzo[e]thiazolo[3,2-a][1,3]diazepine dihydrochloride] | ≤ 10 µM
33 | C1=C(CSC2=NCc3ccccc3N2)N2CC(c3ccccc3)N=C2S1 (stereo not drawn) [Example 120, 3-(((1,4-dihydroquinazolin-2-yl)thio)methyl)-6-phenyl-5,6-dihydroimidazo[2,1-b]thiazole dihydrochloride] | ≤ 10 µM
34 | CN1CC[C@H](SC2=NCCc3ccccc3N2)C1 [Example 200, (S)-2-((1-methylpyrrolidin-3-yl)thio)-4,5-dihydro-3H-benzo[d][1,3]diazepine dihydrochloride] | ≤ 10 µM
35 | CN1CCCC1CSC1=NCC(Cc2ccccc2)N1 (stereo not drawn) [Example 53, 5-benzyl-2-(((1-methylpyrrolidin-2-yl)methyl)thio)-4,5-dihydro-1H-imidazole dihydrochloride] | 10 to 32 µM
36 | CN1CCC(SC2=NCCc3ccccc3N2)C1 (stereo not drawn) [Example 105, 2-((1-methylpyrrolidin-3-yl)thio)-4,5-dihydro-1H-benzo[d][1,3]diazepine dihydrochloride] | 10 to 32 µM
37 | Clc1nccc2sc(CSC3=NCC(Cc4ccccc4)N3)cc12 (stereo not drawn) [Example 61, 2-(((5-benzyl-4,5-dihydro-1H-imidazol-2-yl)thio)methyl)-4-chlorothieno[3,2-c]pyridine dihydrochloride] | ≤ 10 µM
38 | c1ccc2c(c1)CN=C(SCc1ccncc1)NC2 [Example 189, 3-((pyridin-4-ylmethyl)thio)-2,5-dihydro-1H-benzo[e][1,3]diazepine dihydrochloride] | > 32 µM
39 | Fc1ccc2c(c1)CN=C(SCCCCN1CCCC1)N2 [Example 152, 6-fluoro-2-((4-(pyrrolidin-1-yl)butyl)thio)-1,4-dihydroquinazoline dihydrochloride] | 10 to 32 µM
